Values of other authors as cited in PubChem BioAssay AID1259409 (Chemical Carcinogenesis Research Information System (CCRIS), 2018).

System: rodent chemically induced tumor inhibition, incidence and multiplicity
Assay: CCRIS tumor inhibitor studies
Details: Route [Inhibitor]: ORAL, Promoter: NONE USED

CC1=C(CC(=O)O)c2cc(F)ccc2/C1=C\c1ccc(S(C)=O)cc1 (stereo unspecified)
tumour outcome (control, treated, inhibition, significance) (Carcinogen: 1,2-DIMETHYLHYDRAZINE HYDROCHLORIDE, 306-37-6, Dose [Inhibitor]: 5 MG/KG BW IN DRINKING WATER ADMINISTERED CONCURRENTLY WITH CARCINOGEN FOR 24 WK (STUDY DURATION: 24 WK), Species: MOUSE, Strain/Sex: BALB/FEMALE, Target Tissue: Type of Lesion: COLON: MICROADENOMA, Dose [Carcinogen]: 25 MG/KG BW IN 0.4% EDTA AND 0.9% NORMAL SALINE 1/WK FOR 24 WK): 35/38 (92%), 18/38 (47%), 49%, not calculated | tumour outcome (control, treated, inhibition, significance) (Carcinogen: 1,2-DIMETHYLHYDRAZINE HYDROCHLORIDE, 306-37-6, Dose [Inhibitor]: 5 MG/KG BW IN DRINKING WATER BEGINNING 10 D POST LAST CARCINOGEN DOSE AND CONTINUING FOR 78 D (STUDY DURATION: 28 WK), Species: MOUSE, Strain/Sex: BALB/FEMALE, Target Tissue: Type of Lesion: COLON: MICROADENOMA, Dose [Carcinogen]: 25 MG/KG BW IN 0.4% EDTA AND 0.9% NORMAL SALINE 1/WK FOR 17 WK): 15/18 (83%), 13/18 (72%), 13%, not calculated | tumour outcome (control, treated, inhibition, significance) (Carcinogen: 1-METHYL-1-NITROSOUREA, 684-93-5, Dose [Inhibitor]: 0, 0.06% IN A PURIFIED HIGH-FAT (24.6%) DIET FOR 37 WK BEGINNING 1 WK POST CARCINOGEN DOSE (STUDY DURATION:38 WK), Species: RAT, Strain/Sex: SPRAGUE-DAWLEY/FEMALE, Target Tissue: Type of Lesion: MAMMARY GLAND: CARCINOMA, Dose [Carcinogen]: 12.5 MG/KG BW ONCE): 30%, 9%, 70%, p<0.05 | tumour outcome (control, treated, inhibition, significance) (Carcinogen: 1-METHYL-1-NITROSOUREA, 684-93-5, Dose [Inhibitor]: 0, 0.06% IN DIET FOR DURATION OF STUDY BEGINNING 7 D POST CARCINOGEN DOSE (STUDY DURATION: 24 WK), Species: RAT, Strain/Sex: SPRAGUE-DAWLEY/FEMALE, Target Tissue: Type of Lesion: MAMMARY GLAND: ADENOCARCINOMA, Dose [Carcinogen]: 50 MG/KG ONCE): 93%, 87%, 6%, not significant | tumour outcome (control, treated, inhibition, significance) (Carcinogen: 4-(METHYLNITROSAMINO)-1-(3-PYRIDYL)-1-BUTANONE, 64091-91-4, Dose [Inhibitor]: 0, 0.13 G/KG DIET (EFFECTIVE DOSE 0.95 UMOL/D) BEGINNING 2 WK PRIOR TO CARCINOGEN TREATMENT AND CONTINUING FOR DURATION, Species: MOUSE, Strain/Sex: STRAIN-A/FEMALE, Target Tissue: Type of Lesion: LUNG: TUMORS, Dose [Carcinogen]: 9.0-9.2 MG/MOUSE (TOTAL DOSE) IN DRINKING WATER ADMINISTERED OVER 7 WK): 28/28 (100%), 23/25 (92%), 8%, not significant | tumour outcome (control, treated, inhibition, significance) (Carcinogen: 4-(METHYLNITROSAMINO)-1-(3-PYRIDYL)-1-BUTANONE, 64091-91-4, Dose [Inhibitor]: 0, 15 MG/KG BW IN DIET FOR DURATION OF STUDY BEGINNING 2 WK PRIOR TO CARCINOGEN TREATMENT (STUDY DURATION: 25 WK), Species: MOUSE, Strain/Sex: STRAIN-A/FEMALE, Target Tissue: Type of Lesion: LUNG: TUMOR, Dose [Carcinogen]: 9.1 MG/MOUSE (TOTAL DOSE) ADMINISTERED IN DRINKING WATER OVER 7 WK): 23/24 (96%), 25/25 (100%), -4%, not significant | outcome (Carcinogen: 4-(METHYLNITROSAMINO)-1-(3-PYRIDYL)-1-BUTANONE, 64091-91-4, Dose [Inhibitor]: 0, 123 MG/KG DIET FOR 2 WK BEGINNING 2 WK PRIOR TO CARCINOGEN TREATMENT (STUDY DURATION: 18 WK), Species: MOUSE, Strain/Sex: STRAIN-A/FEMALE, Target Tissue: Type of Lesion: LUNG: TUMOR, Dose [Carcinogen]: 2 MG IN 0.5 ML 0.9% SALINE ONCE): 25/25 (100%), 20/20 (100%), o%, not significant | outcome (Carcinogen: 4-(METHYLNITROSAMINO)-1-(3-PYRIDYL)-1-BUTANONE, 64091-91-4, Dose [Inhibitor]: 0, 123 MG/KG DIET FOR 18 WK BEGINNING 2 WK PRIOR TO CARCINOGEN TREATMENT (STUDY DURATION: 18 WK), Species: MOUSE, Strain/Sex: STRAIN-A/FEMALE, Target Tissue: Type of Lesion: LUNG: TUMOR, Dose [Carcinogen]: 2 MG IN 0.5 ML 0.9% SALINE ONCE): 25/25 (100%), 24/24 (100%), o%, not significant | outcome (Carcinogen: 4-(METHYLNITROSAMINO)-1-(3-PYRIDYL)-1-BUTANONE, 64091-91-4, Dose [Inhibitor]: 0, 123 MG/KG DIET FOR 25 WK BEGINNING 2 WK PRIOR TO CARCINOGEN TREATMENT (STUDY DURATION: 25 WK), Species: MOUSE, Strain/Sex: STRAIN-A/FEMALE, Target Tissue: Type of Lesion: LUNG: TUMOR, Dose [Carcinogen]: 62.4 UG/ML IN DRINKING WATER FOR 7 WK FOR A CUMULATIVE DOSE OF 9.1 MG/MOUSE): 25/25 (100%), 24/24 (100%), o%, not significant | tumour outcome (control, treated, inhibition, significance) (Carcinogen: 4-(METHYLNITROSAMINO)-1-(3-PYRIDYL)-1-BUTANONE, 64091-91-4, Dose [Inhibitor]: 0, 123 MG/KG IN DIET FOR 9 WK BEGINNING 2 WK PRIOR TO CARCINOGEN TREATMENT (STUDY DURATION: 25 WK), Species: MOUSE, Strain/Sex: STRAIN-A/FEMALE, Target Tissue: Type of Lesion: FORESTOMACH: TUMOR, Dose [Carcinogen]: 9.1 MG IN DRINKING WATER FOR 7 WK): 7/25 (28%), 2/25 (8%), 71%, not significant | tumour outcome (control, treated, inhibition, significance) (Carcinogen: 4-(METHYLNITROSAMINO)-1-(3-PYRIDYL)-1-BUTANONE, 64091-91-4, Dose [Inhibitor]: 0, 123 MG/KG IN DIET FOR 16 WK BEGINNING POST CARCINOGEN TREATMENT (STUDY DURATION: 25 WK), Species: MOUSE, Strain/Sex: STRAIN-A/FEMALE, Target Tissue: Type of Lesion: FORESTOMACH: TUMOR, Dose [Carcinogen]: 9.1 MG IN DRINKING WATER FOR 7 WK): 7/25 (28%), 3/22 (14%), 50%, not significant | tumour outcome (control, treated, inhibition, significance) (Carcinogen: 4-(METHYLNITROSAMINO)-1-(3-PYRIDYL)-1-BUTANONE, 64091-91-8, Dose [Inhibitor]: 0, 123 MG/KG IN DIET FOR 25 WK BEGINNING 2 WK PRIOR TO CARCINOGEN TREATMENT (STUDY DURATION: 25 WK), Species: MOUSE, Strain/Sex: STRAIN-A/FEMALE, Target Tissue: Type of Lesion: FORESTOMACH: TUMOR, Dose [Carcinogen]: 9.1 MG IN DRINKING WATER FOR 7 WK): 7/25 (28%), 1/25 (4%), 86%, p<0.05 | tumour outcome (control, treated, inhibition, significance) (Carcinogen: AZOXYMETHANE, 25843-45-2, Dose [Inhibitor]: 0, 160 PPM IN DIET FOR DURATION OF STUDY BEGINNING 2 WK PRIOR TO CARCINOGEN TREATMENT (STUDY DURATION: 54 WK), Species: RAT, Strain/Sex: F344/MALE, Target Tissue: Type of Lesion: COLON: ADENOCARCINOMA, Dose [Carcinogen]: 15 MG/KG BW 1/WK FOR 2 WK): 81%, 47%, 42%, p<0.01 | tumour outcome (control, treated, inhibition, significance) (Carcinogen: AZOXYMETHANE, 25843-45-2, Dose [Inhibitor]: 0, 320 PPM IN DIET FOR 38 WK BEGINNING 14 WK POST CARCINOGEN TREATMENT (STUDY DURATION: 54 WK), Species: RAT, Strain/Sex: F344/MALE, Target Tissue: Type of Lesion: COLON: ADENOCARCINOMA, Dose [Carcinogen]: 15 MG/KG BW 1/WK FOR 2 WK): 81%, 26%, 68%, p<0.0001 | tumour outcome (control, treated, inhibition, significance) (Carcinogen: AZOXYMETHANE, 25843-45-2, Dose [Inhibitor]: 0, 320 PPM IN DIET FOR DURATION OF STUDY BEGINNING 2 WK PRIOR TO CARCINOGEN TREATMENT (STUDY DURATION: 54 WK), Species: RAT, Strain/Sex: F344/MALE, Target Tissue: Type of Lesion: COLON: ADENOCARCINOMA, Dose [Carcinogen]: 15 MG/KG BW 1/WK FOR 2 WK): 81%, 36%, 56%, p<0.0001 | tumour outcome (control, treated, inhibition, significance) (Carcinogen: AZOXYMETHANE, 25843-45-2, Dose [Inhibitor]: 0, 400 PPM IN DIET FOR 29 WK BEGINNING 1 WK POST CARCINOGEN TREATMENT (STUDY DURATION: 32 WK), Species: RAT, Strain/Sex: F344/MALE, Target Tissue: Type of Lesion: COLON: ADENOMA, Dose [Carcinogen]: 15 MG/KG BW 1/WK FOR 2 WK): 77%, 30%, 61%, p<0.05 | tumour outcome (control, treated, inhibition, significance) (Carcinogen: AZOXYMETHANE, 25843-45-2, Dose [Inhibitor]: 0, 400 PPM IN DIET FOR 29 WK BEGINNING 1 WK POST CARCINOGEN TREATMENT (STUDY DURATION: 32 WK), Species: RAT, Strain/Sex: F344/MALE, Target Tissue: Type of Lesion: COLON: CARCINOMA, Dose [Carcinogen]: 15 MG/KG BW 1/WK FOR 2 WK): 53%, 13%, 75%, p<0.05 | tumour outcome (control, treated, inhibition, significance) (Carcinogen: N-BUTYL-N-(4-HYDROXYBUTYL)NITROSAMINE, 3817-11-6, Dose [Inhibitor]: 0, 200 MG/KG DIET FOR 24 WK BEGINNING 1 WK PRIOR TO CARCINOGEN TREATMENT (STUDY DURATION: 24 WK), Species: MOUSE, Strain/Sex: BDF/MALE, Target Tissue: Type of Lesion: URINARY BLADDER: TRANSITIONAL CELL CARCINOMA, Dose [Carcinogen]: 7.5 MG 1/WK FOR 8 WK): 20/74 (27%), 6/73 (8%), 70%, p<0.01 | tumour outcome (control, treated, inhibition, significance) (Carcinogen: N-BUTYL-N-(4-HYDROXYBUTYL)NITROSAMINE, 3817-11-6, Dose [Inhibitor]: 0, 400 MG/KG DIET FOR 24 WK BEGINNING 1 WK PRIOR TO CARCINOGEN TREATMENT (STUDY DURATION: 24 WK), Species: MOUSE, Strain/Sex: BDF/MALE, Target Tissue: Type of Lesion: URINARY BLADDER: TRANSITIONAL CELL CARCINOMA, Dose [Carcinogen]: 7.5 MG 1/WK FOR 8 WK): 20/74 (27%), 2/75 (3%), 89%, p<0.01 | tumour outcome (control, treated, inhibition, significance) (Carcinogen: N-NITROSOMETHYLBENZYLAMINE, 937-40-6, Dose [Inhibitor]: 0, 125 PPM IN DIET FOR DURATION OF STUDY BEGINNING 1 WK POST CARCINOGEN TREATMENT (STUDY DURATION: 25 WK), Species: RAT, Strain/Sex: F344/MALE, Target Tissue: Type of Lesion: ESOPHAGUS: TUMOR, Dose [Carcinogen]: 1 MG/KG 3/WK FOR 5 WK): 15/15 (100%), 14/15 (93%), 7%, not significant | tumour outcome (control, treated, inhibition, significance) (Carcinogen: N-NITROSOMETHYLBENZYLAMINE, 937-40-6, Dose [Inhibitor]: 0, 125 PPM IN DIET FOR DURATION OF STUDY BEGINNING 2 WK PRIOR TO CARCINOGEN TREATMENT (STUDY DURATION: 25 WK), Species: RAT, Strain/Sex: F344/MALE, Target Tissue: Type of Lesion: ESOPHAGUS: TUMOR, Dose [Carcinogen]: 1 MG/KG 3/WK FOR 5 WK): 15/15 (100%), 14/15 (93%), 7%, not significant
